Measurements: US7087658B2, “Water-soluble coating agents bearing initiator groups” (SurModics, Inc., priority 1999, dated 2006)

Tests used:
[1] = tested on: intrinsic and common pathways of coagulation; assay: Partial thromboplastin time (PTT) test; format: biochemical
Protocol: A useful test in determining the hemocompatibility of a reagent is the partial thromboplastin time (PTT) test. The PTT is a test of the intrinsic (factors VIII, IX, XI, and XII) and common (fibrinogen, prothrombin, factors V and X) pathways of coagulation. A mixture of plasma and phospholipid platelet substitute (rabbit brain cephalin) is recalcified and the time required for the appearance of fibrin strands measured.
The PTT was tested to determine whether Compound I or Compound II have the ability to extend the control PTT. A test tube of rabbit brain cephalin (Sigma #RBC) in 0.85% NaCl and a test tube of 0.02 M CaCl2 was brought to 37° C. in a water bath. Dade Ci-trol coagulation control lyophilized plasma (Dade International, Inc., product no. 34224-10) was reconstituted in sterile deionized water. In 10×75 mm glass test tubes, 100 μl reconstituted plasma and 100 μl RBC were mixed and incubated at 37° C. in a water bath for 5 minutes. Next, 50 μl of sample (deionized water, a photocrosslinkable polyvinylpyrrolidone (available from SurModics, Inc., product no. PVO5), or Compound I or II) was added and mixed. While simultaneously starting a stop watch, 100 μl of 0.02 M CaCl2 was added to initiate the clotting cascade. After 40 seconds had passed, the test tubes were shaken lightly, observed for fibrin formation, and the number of seconds was recorded.
All samples were tested in duplicate. The appropriate control PTT, depending upon what solvent in which the reagent was dissolved, was subtracted from the average PTT for the reagent to give the time the control PTT was extended.

platelets = assay: Platelet attachment and activation from platelet rich plasma (SEM); format: cell-based, human; conditions: coated polyethylene (PE); for Platelet activation, spreading and aggregation: SEM
Protocol: The surface-modified materials were incubated with platelet rich plasma (PRP), observed with a scanning electron microscope and photographed to determine the influence of surface chemistry on platelet attachment and activation.
Blood was collected fresh from human volunteers into 3.8% (v/v) sodium citrate solution using 9:1 ratio of blood to anticoagulant. The blood was centrifuged at 1200 rpm for 15 minutes to separate PRP from blood. The PRP was collected and kept at room temperature until used (less than 1 hour).
The test samples (½-inch circles) were placed in a 6-well plate, 1 sample per well. The PRP solution was added onto the top of the samples until the entire surface of the sample was covered, and the samples were incubated one hour at room temperature with no agitation. To quantify the platelet solution, a sample of the PRP was taken and diluted 1:100 with 1% (v/v) Oxalate Ammonium. A capillary tube was used to transfer a small amount of solution to a hemacytometer, and the sample was incubated in a covered petri dish for 30 minutes at room temperature for the platelets to settle.
The platelets were counted under a phase contrast microscope and determined to be approximately 50–100×10^9 platelets/L. After incubation, the PRP was removed carefully by aspiration and 3 mls of Tyrode's buffer (138-mM NaCl, 2.9-mM KCl, 12-mM sodium bicarbonate, pH 7.4) gently added to each well. The plates were agitated slightly on an orbital shaker for 15 minutes; the solution was changed and the wash repeated. The wash solution was aspirated and 2.0 ml of Karnovsky's fixative (25-mls formaldehyde, 5-mls 25% glutaraldehyde, 20-mls of a solution of 23% NaH2PO4—H2O, 77% NaHPO4 anhydrous) were added to each well. The plate was wrapped with parafilm and incubated overnight at room temperature with slight agitation.
The fixative was aspirated off and the samples were washed 3 times each with pure water, 15 minutes each. […] The platelets were counted and judged by degree of activation and morphology.

[2] = tested on: Beta-Thromboglobulin (β-TG) released from the α-granules of platelets; assay: Beta-Thromboglobulin assay; format: cell-based, human; conditions: coated polyethylene; PRP, one hour at room temperature; enzyme immunoassay
Protocol: The surface-modified materials were incubated with PRP and the plasma was assayed for the Beta-Thromboglobulin (β-TG) released from the α-granules due to activation of the platelets. Blood was collected fresh from human volunteers into 3.8% (v/v) sodium citrate using 9:1 ratio of blood to anticoagulant. The blood was centrifuged at 1200 rpm for 15 minutes to separate PRP from blood. The PRP was collected and kept at room temperature until used (less than 1 h). The test samples (½-inch circles) were placed in a 6-well plate, 1 sample per well. The PRP solution was added onto the top of the samples until the entire surface of the sample was covered, and the samples incubated one hour at room temperature with no agitation. Control samples of plasma, for initial β-TG levels, were taken prior to incubation.
After incubation with the samples, prostaglandin E1 (Sigma, product no. P5515) was added to each sample and the plasma was assayed with an enzyme immunoassay kit (Asserachrom American Bioproduct, product no. 0250) for the amount of β-TG released.

[3] = final concentration 0.7 mg/ml, solvent H2O
[4] = final concentration 1.43 mg/ml, solvent H2O
[5] = final concentration 0.7 mg/ml, solvent 50% IPA
[6] = final concentration 1.29 mg/ml, solvent 50% IPA

SMILES	Average PTT [1, 3] [s]	Formed Clot [1, 3]	Time Extended Beyond Control PTT ([1]; final concentration 0.7 mg/ml, solvent H2O, DI H2O control subtracted) [s]	Average PTT [1, 4] [s]	Formed Clot [1, 4]	Time Extended Beyond Control PTT ([1]; final concentration 1.43 mg/ml, solvent H2O, DI H2O control subtracted) [s]	Platelet activation, spreading and aggregation (platelets)	Morphology of platelets attached to modified surfaces (platelets; SEM photographs)	β-TG release [2]	Average PTT [1, 5] [s]	Formed Clot [1, 5]	Time Extended Beyond Control PTT ([1]; final concentration 0.7 mg/ml, solvent 50% IPA, 50% IPA control subtracted) [s]	Average PTT [1, 6] [s]	Formed Clot [1, 6]	Time Extended Beyond Control PTT ([1]; final concentration 1.29 mg/ml, solvent 50% IPA, 50% IPA control subtracted) [s]	Extension of the 50% IPA control PTT ([1]; higher of the two final concentrations tested, 50% IPA control) [h]	Extension of PTT from water control ([1]; higher of the two final concentrations tested, water control) [h]
O=C(c1ccccc1)c1ccc(COc2cc(S(=O)(=O)[O-])cc(S(=O)(=O)[O-])c2OCc2ccc(C(=O)c3ccccc3)cc2)cc1.[K+].[K+] [Compound I, 4,5-bis(4-benzoylphenylmethyleneoxy) benzene-1,3-disulfonic acid disodium salt]	117	yes	64	>3600	no	>3600	less activation and spreading	Full coverage, many aggregates, little	lower levels of β-TG release than the uncoated and PVO5 controls								
O=C(c1ccccc1)c1ccc(COc2cc(S(=O)(=O)[O-])c(OCc3ccc(C(=O)c4ccccc4)cc3)cc2S(=O)(=O)[O-])cc1.[K+].[K+] [Compound II, 2,5-bis(4-benzoylphenylmethyleneoxy) benzene-1,4-disulfonic acid dipotassium salt]							some spreading pseudopodia, but little or no aggregating			134	yes	56	3600	yes	3522	1	≥ 1
